Assay results from US7585667B2, “Negative strand RNA virus replicon” (The United States of America as represented by The …, priority 2003, dated 2009).

Tested on: BHK-SR19-T7 cells
Experiment: Blasticidin concentration that kills BHK-SR19-T7 cells
Type: cell-based, hamster
Settings: in medium
Protocol: To launch the replicon, MP295 and the four RSV support plasmids necessary for virus replication and gene expression, N, P, L, and M2-1 were transfected into two 35 mm wells of BHK-SR19-T7 cells (FIG. 4). On day 2, green cells were noted and all of the cells from each 35 mm dish were passaged to 100 mm dishes. On the following day (day 3) the medium was replaced with fresh medium containing 1 ug/ml blasticidin, a concentration that we had determined would kill most BHK-SR19-T7 cells. On day 4, approximately 200 single green cells and 15 pairs of the green cells were noted. On day 6, 20 pairs of green cells were noted. Many of the cells lacking the replicon had died by that time, but a few resistant colonies were growing. The cells were passaged into 150 mm tissue culture plates, in the presence of 4 or 8 ug/ml blasticidin in an attempt to eliminate resistant BHK cell clones. The following day, day 9, 40% of the 175 cell groups counted were pairs, the remainder being singles. By day 14, 3 colonies of >20 cells had developed, while many of the individual green cells had remained single or died. By day 19, many “mixed” colonies containing both replicon-containing and parental cells were noted, as well as more colonies with only green cells.

CN(CC[C@H](N)CC(=O)N[C@H]1C=C[C@H](n2ccc(N)nc2=O)O[C@@H]1C(=O)O)C(=N)N [blasticidin]
concentration that would kill most BHK-SR19-T7 cells: 1 µg/mL
